One assay deals with wild-type human cardiac sodium channel, hNav1.5 (Homo sapiens, UniProt Q14524). The experiment in a line: Late INa screening assay (late sodium current, PatchXpress whole cell patch clamp). It counts as cell-based. The settings on record: compound at 10 μM; read-out: Late INa % blk. The method, then: The late sodium current (Late INa) and peak sodium current (Peak INa) assays are performed on an automated electrophysiology platform, PatchXpress 7000A (MDS Analytical Technologies, Sunnyvale, Calif.), which uses the whole cell patch clamp technique to measure currents through the cell membrane of up to 16 cells at a time. The assay uses an HEK293 (human embryonic kidney) cell line heterologously expressing the wild-type human cardiac sodium channel, hNav1.5, purchased from Millipore (Billerica, Mass.). No beta subunits were coexpressed with the Na channel alpha subunit. […] Experiments are carried out at 24-27° C.
wild-type human cardiac sodium channel, hNav1.5, sequence (Q14524 whole entry): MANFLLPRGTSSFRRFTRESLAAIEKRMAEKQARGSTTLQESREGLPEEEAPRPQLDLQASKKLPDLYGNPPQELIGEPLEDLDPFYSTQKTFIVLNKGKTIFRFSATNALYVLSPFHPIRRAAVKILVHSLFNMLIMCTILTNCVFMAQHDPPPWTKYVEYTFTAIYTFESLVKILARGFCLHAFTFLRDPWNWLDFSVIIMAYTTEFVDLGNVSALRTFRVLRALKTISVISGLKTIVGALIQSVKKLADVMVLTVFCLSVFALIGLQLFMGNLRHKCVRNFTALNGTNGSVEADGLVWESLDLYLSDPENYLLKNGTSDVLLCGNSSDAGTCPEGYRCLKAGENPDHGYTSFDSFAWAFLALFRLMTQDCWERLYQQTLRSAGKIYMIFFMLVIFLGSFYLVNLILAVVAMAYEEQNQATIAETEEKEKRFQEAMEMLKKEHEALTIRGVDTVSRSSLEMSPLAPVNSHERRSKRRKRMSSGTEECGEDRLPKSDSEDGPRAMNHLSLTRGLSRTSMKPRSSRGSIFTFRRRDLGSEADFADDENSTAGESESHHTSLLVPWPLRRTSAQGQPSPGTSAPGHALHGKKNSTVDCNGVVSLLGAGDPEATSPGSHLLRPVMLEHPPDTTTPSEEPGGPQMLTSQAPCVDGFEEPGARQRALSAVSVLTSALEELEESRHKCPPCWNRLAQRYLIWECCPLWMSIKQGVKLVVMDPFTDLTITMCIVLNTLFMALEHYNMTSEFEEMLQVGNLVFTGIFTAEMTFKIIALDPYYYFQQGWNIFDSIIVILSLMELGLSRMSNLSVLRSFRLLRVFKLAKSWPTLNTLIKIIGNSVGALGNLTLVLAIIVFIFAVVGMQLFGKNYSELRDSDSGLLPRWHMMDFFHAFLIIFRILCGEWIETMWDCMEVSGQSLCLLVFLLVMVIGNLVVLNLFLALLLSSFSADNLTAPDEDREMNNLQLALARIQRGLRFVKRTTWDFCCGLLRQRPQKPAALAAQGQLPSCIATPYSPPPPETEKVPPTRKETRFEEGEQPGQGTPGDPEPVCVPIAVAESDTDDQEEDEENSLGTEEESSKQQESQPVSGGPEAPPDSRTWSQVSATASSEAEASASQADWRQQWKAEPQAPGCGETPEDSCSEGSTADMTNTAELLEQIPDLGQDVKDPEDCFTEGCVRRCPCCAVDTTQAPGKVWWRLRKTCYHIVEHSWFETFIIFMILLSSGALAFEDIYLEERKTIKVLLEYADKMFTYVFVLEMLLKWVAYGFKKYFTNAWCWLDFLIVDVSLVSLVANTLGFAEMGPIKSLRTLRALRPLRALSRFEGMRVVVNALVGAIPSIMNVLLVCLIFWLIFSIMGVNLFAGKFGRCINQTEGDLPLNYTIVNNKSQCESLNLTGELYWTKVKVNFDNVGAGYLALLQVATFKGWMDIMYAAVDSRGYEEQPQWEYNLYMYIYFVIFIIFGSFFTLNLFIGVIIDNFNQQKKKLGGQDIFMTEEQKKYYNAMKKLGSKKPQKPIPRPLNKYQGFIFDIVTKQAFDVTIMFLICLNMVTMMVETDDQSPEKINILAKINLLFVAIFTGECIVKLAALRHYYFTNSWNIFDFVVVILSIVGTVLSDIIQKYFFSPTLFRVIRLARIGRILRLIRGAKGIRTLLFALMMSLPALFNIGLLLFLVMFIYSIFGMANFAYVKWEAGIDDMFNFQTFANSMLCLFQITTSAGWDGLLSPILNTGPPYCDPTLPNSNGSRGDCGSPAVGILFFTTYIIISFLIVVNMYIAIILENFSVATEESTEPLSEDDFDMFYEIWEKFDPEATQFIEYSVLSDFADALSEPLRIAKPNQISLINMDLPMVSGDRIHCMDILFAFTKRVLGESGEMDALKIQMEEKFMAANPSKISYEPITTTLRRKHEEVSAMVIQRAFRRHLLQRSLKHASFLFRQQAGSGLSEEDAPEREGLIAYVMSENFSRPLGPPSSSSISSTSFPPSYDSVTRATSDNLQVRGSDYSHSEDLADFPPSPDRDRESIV
For both the Late INa and Peak INa assays, series resistance compensation is set to 50% and whole-cell compensation is performed automatically. […] Currents through open sodium channels are automatically recorded and stored in the DataXpress2 database (MDS Analytical Technologies, Sunnyvale, Calif.). Analysis is performed using DataXpress2 analysis software and data are compiled in Excel.
Compound stocks are routinely made in glass vials to 10 mM in dimethyl sulfoxide (DMSO). In some cases, when compounds are not soluble in DMSO, they are made in 100% ethanol. Stocks are sonicated as necessary. The extracellular solution for screening Late INa is composed of: 140 mM NaCl, 4 mM KCl, 1.8 mM CaCl2, 0.75 mM MgCl2, and 5 mM HEPES with pH adjusted to 7.4 using NaOH. The extracellular solution for screening Peak INa is composed of: 20 mM NaCl, 120 mM N-methyl-D glucamine, 4 mM KCl, 1.8 mM CaCl2, 0.75 mM MgCl2, and 5 mM HEPES with pH adjusted to 7.4 using HCl. The intracellular solution used to perfuse the inside of the cells for both the Late INa and Peak INa assays contains: 120 mM CsF, 20 mM CsCl, 5 mM EGTA, 5 mM HEPES and pH adjusted to 7.4 with CsOH. Compounds are diluted in extracellular solution to 10 μM in glass vials and then transferred to glass well plates before robotic addition to the cells. The 0 Na extracellular solution used at the end of each experiment for the Late INa and Peak INa assays to measure baseline current contains: 140 mM N-methyl-D-glucamine; 4 mM KCl; 1.8 mM CaCl2; 0.75 mM MgCl2; 5 mM HEPES and pH was adjusted to 7.4 with HCl.
For the Late INa assay, sodium channels are activated every 10 seconds (0.1 Hz) by depolarizing the cell membrane to −20 mV for 250 milliseconds (ms) from a holding potential of −120 mV.
All compounds are tested to determine their activity in blocking the late sodium current. Late INa current is generated by adding 10 μM Tefluthrin (pyrethroid) to the extracellular solution while recording Na currents. […] For some experiments, 50 nM ATX II (sea anemone toxin), another late INa activator, was used to generate the late component. […] Baseline current in the absence of Na^+ ions is measured at the end of each experiment (after two additions of 0 Na solution-see above) and is used to calculate the percent block by compound.
Take `CCOC(=O)C1=C(C)NC2=C(C(=O)CCC2(C)C)C1c1ccc(Cl)s1` (centres unmarked) [PT-146, ethyl 4-(5-chlorothiophen-2-yl)-2,8,8-trimethyl-5-oxo-1,4,5,6,7,8-hexahydroquinoline-3-carboxylate]: the inhibition at 10 µM was 31.2%.

As to `CC1=C(C(=O)OC(C)C)C(c2cnn(-c3ccc(F)cc3)c2C)C(C(=O)OC(C)C)=C(C)N1` [PT-127, diisopropyl 4-(1-(4-fluorophenyl)-5-methyl-1H-pyrazol-4-yl)-2,6-dimethyl-1,4-dihydropyridine-3,5-dicarboxylate], the inhibition at 10 µM turned out to be 1.1%.

With `CC1=C(C(=O)OCc2ccccc2)C(c2ccccc2-c2cccc(C(=O)O)c2)C2=C(CCCC2=O)N1` (centres unmarked) [PT-248, 2′-(3-(benzyloxycarbonyl)-2-methyl-5-oxo-1,4,5,6,7,8-hexahydroquinolin-4-yl)biphenyl-3-carboxylic acid], the inhibition at 10 µM came to 27.2%.

In the case of `CCOC(=O)C1=C(C)Nc2nnnn2C1c1ccccc1-c1ccncc1` (centres unmarked) [PT-460, ethyl 5-methyl-7-(2-(pyridin-4-yl)phenyl)-4,7-dihydrotetrazolo[1,5-a]pyrimidine-6-carboxylate], the inhibition at 10 µM was 22.1%.

Regarding `CC1=C(C(=O)OCc2ccccc2)C(c2ccc3ccccc3c2)n2nnnc2N1` (centres unmarked) [PT-028, benzyl 5-methyl-7-(naphthalen-2-yl)-4,7-dihydrotetrazolo[1,5-a]pyrimidine-6-carboxylate], the inhibition at 10 µM worked out at 23.1%.

On to `COc1cc(C#N)ccc1C1C(C(=O)OCc2ccccc2)=C(C)Nc2nnnn21` (centres unmarked) [PT-417, benzyl 7-(4-cyano-2-methoxyphenyl)-5-methyl-4,7-dihydrotetrazolo[1,5-a]pyrimidine-6-carboxylate], for which the inhibition at 10 µM was 41.3%.

As for `CC1=C(C(=O)OCc2ccccc2)C(c2ccccc2)c2ccccc2N1` (centres unmarked) [PT-321, benzyl 2-methyl-4-phenyl-1,4-dihydroquinoline-3-carboxylate], the inhibition at 10 µM is 48.3%.

As for `CC1=C(C(=O)N[C@H](C)c2ccccc2)C(c2cccc3ccccc23)n2nnnc2N1` (stereo partly drawn) [PT-070, 5-methyl-7-(naphthalen-1-yl)-N-((R)-1-phenylethyl)-4,7-dihydrotetrazolo[1,5-a]pyrimidine-6-carboxamide], the inhibition at 10 µM came to 9.9%.

Consider `CC1=C(C(=O)OC2Cc3ccccc3C2)C(c2cccc3ccccc23)n2nnnc2N1` (centres unmarked) [PT-260, 2,3-dihydro-1H-inden-2-yl 5-methyl-7-(naphthalen-1-yl)-4,7-dihydrotetrazolo[1,5-a]pyrimidine-6-carboxylate], for which the inhibition at 10 µM was determined as 74.8%.

For `COC(=O)C1=C(C)Nc2nnnn2C1c1cccs1` (centres unmarked) [PT-513, methyl 5-methyl-7-(thiophen-2-yl)-4,7-dihydrotetrazolo[1,5-a]pyrimidine-6-carboxylate], the inhibition at 10 µM amounted to 10.5%.

In the case of `CC1=C(C(=O)OCc2ccc(Cn3cccn3)cc2)C(c2ccc(N(C)C)c3ccccc23)n2nnnc2N1` (centres unmarked) [PT-283, 4-((1H-pyrazol-1-yl)methyl)benzyl 7-(4-(dimethylamino)naphthalen-1-yl)-5-methyl-4,7-dihydrotetrazolo[1,5-a]pyrimidine-6-carboxylate], the inhibition at 10 µM was determined as 11.4%.

In the case of `CC1=C(C(=O)OCc2ccccc2)C(c2cccc3ccccc23)c2cn[nH]c2N1` (centres unmarked) [PT-367, benzyl 6-methyl-4-(naphthalen-1-yl)-4,7-dihydro-1H-pyrazolo[3,4-b]pyridine-5-carboxylate], the inhibition at 10 µM is 16.1%.

Regarding `COc1ccc(COC(=O)C2=C(C)NC(C)=C(C(=O)OCc3ccc(OC)c(OC)c3)C2c2ccc3ccccc3c2)cc1OC` [PT-130, bis(3,4-dimethoxybenzyl) 2,6-dimethyl-4-(naphthalen-2-yl)-1,4-dihydropyridine-3,5-dicarboxylate], the inhibition at 10 µM came out at 15.7%.

For the molecule `CCOC(=O)C1=C(C)Nc2nnnn2C1c1sccc1Br` (centres unmarked) [PT-498, ethyl 7-(3-bromothiophen-2-yl)-5-methyl-4,7-dihydrotetrazolo[1,5-a]pyrimidine-6-carboxylate], the inhibition at 10 µM came out at 25.2%.

Turning to `CC1=C(C(=O)OCc2ccccc2)C(c2cccc3ccccc23)n2ncc(-c3ccccc3)c2N1` (centres unmarked) [PT-362, benzyl 5-methyl-7-(naphthalen-1-yl)-3-phenyl-4,7-dihydropyrazolo[1,5-a]pyrimidine-6-carboxylate], the inhibition at 10 µM stood at 14.4%.

Turning to `COc1cc(-c2nnn[nH]2)ccc1C1C(C(=O)OCc2ccccc2)=C(C)Nc2nnnn21` (centres unmarked) [PT-393, benzyl 7-(2-methoxy-4-(1H-tetrazol-5-yl)phenyl)-5-methyl-4,7-dihydrotetrazolo[1,5-a]pyrimidine-6-carboxylate], the inhibition at 10 µM is 9.8%.

`CC1=C(C(=O)OCc2ccccc2)C(c2ccccc2Br)n2nnnc2N1` (centres unmarked) [PT-387, benzyl 7-(2-bromophenyl)-5-methyl-4,7-dihydrotetrazolo[1,5-a]pyrimidine-6-carboxylate]: the inhibition at 10 µM was found to be 84.8%.

Consider `CCCC1=C(C(=O)OCC)C(c2ccc(Br)s2)C(C(=O)OCC)=C(CCC)N1` [PT-182, diethyl 4-(5-bromothiophen-2-yl)-2,6-dipropyl-1,4-dihydropyridine-3,5-dicarboxylate], for which the inhibition at 10 µM is 33%.

For `CC1=C(C(=O)OCc2ccccc2)C(c2ccc(C(=O)O)cc2)n2nnnc2N1` (centres unmarked) [PT-299, 4-(6-(benzyloxycarbonyl)-5-methyl-4,7-dihydrotetrazolo[1,5-a]pyrimidin-7-yl)benzoic acid], the inhibition at 10 µM worked out at 6.7%.

`CC1=C(C(=O)OC(C)(C)C)C(c2ccc3ccccc3c2)n2nnnc2N1` (centres unmarked) [PT-022, tert-butyl 5-methyl-7-(naphthalen-2-yl)-4,7-dihydrotetrazolo[1,5-a]pyrimidine-6-carboxylate]: the inhibition at 10 µM came out at 26%.

As for `COc1cccc(-c2ccccc2[C@@H]2C(C(=O)OCc3ccccc3)=C(C)Nc3nnnn32)c1` [PT-241, (R)-benzyl 7-(3′-methoxybiphenyl-2-yl)-5-methyl-4,7-dihydrotetrazolo[1,5-a]pyrimidine-6-carboxylate], the inhibition at 10 µM turned out to be 77.1%.

With `CC1=C(C(=O)N2CCN(c3ccc(Cl)cc3)CC2)C(c2ccsc2)C2=C(CCCC2=O)N1` (centres unmarked) [PT-167, 3-(4-(4-chlorophenyl)piperazine-1-carbonyl)-2-methyl-4-(thiophen-3-yl)-4,6,7,8-tetrahydroquinolin-5(1H)-one], the inhibition at 10 µM was -10%.

For the molecule `CC1=C(C(=O)OCc2ccccc2)C(c2c3ccccc3cc3ccccc23)C2=C(CCCC2=O)N1` (centres unmarked) [PT-334, benzyl 4-(anthracen-9-yl)-2-methyl-5-oxo-1,4,5,6,7,8-hexahydroquinoline-3-carboxylate], the inhibition at 10 µM was found to be 29.9%.

As to `CC1=C(C(=O)O[C@@H](C)c2ccccc2)[C@H](c2cccc3ccccc23)n2nnnc2N1` [PT-049, (S)-((S)-1-phenylethyl) 5-methyl-7-(naphthalen-1-yl)-4,7-dihydrotetrazolo[1,5-a]pyrimidine-6-carboxylate], the inhibition at 10 µM stood at 35.4%.

With `CCOC(=O)C1=C(C)Nc2ccnn2C1c1cccc(Oc2ccccc2)c1` (centres unmarked) [PT-463, ethyl 5-methyl-7-(3-phenoxyphenyl)-4,7-dihydropyrazolo[1,5-a]pyrimidine-6-carboxylate], the inhibition at 10 µM was found to be 42.3%.

With `CCOC(=O)C1=C(C)NC(C)=C(C(=O)OCC)C1c1ccoc1` [PT-120, diethyl 4-(furan-3-yl)-2,6-dimethyl-1,4-dihydropyridine-3,5-dicarboxylate], the inhibition at 10 µM amounted to 25.7%.

As for `COc1cc([N+](=O)[O-])ccc1C1C(C(=O)OCc2ccccc2)=C(C)Nc2nnnn21` (centres unmarked) [PT-395, benzyl 7-(2-methoxy-4-nitrophenyl)-5-methyl-4,7-dihydrotetrazolo[1,5-a]pyrimidine-6-carboxylate], the inhibition at 10 µM stood at 48.7%.

On to `COc1ccc(C2C(C(=O)OCc3ccccc3)=C(C)Nc3[nH]ncc32)c2ccccc12` (centres unmarked) [PT-333, benzyl 4-(4-methoxynaphthalen-1-yl)-6-methyl-4,7-dihydro-1H-pyrazolo[3,4-b]pyridine-5-carboxylate], for which the inhibition at 10 µM worked out at 13.1%.

Staying with this assay, now noted: read-out: Late INa % blk.
Regarding `O=C1OCC2=C1C(c1cccc3ccccc13)c1c(-c3ccco3)n[nH]c1N2` (centres unmarked) [PT-080, 3-(furan-2-yl)-4-(naphthalen-1-yl)-7,8-dihydro-1H-furo[3,4-e]pyrazolo[3,4-b]pyridin-5(4H)-one], the inhibition at 10 µM amounted to 31.9%.

Source of the values: US20090012103A1, “SUBSTITUTED HETEROCYCLIC COMPOUNDS” (priority 2007, published 2009).
